From ChEMBL document CHEMBL1201862, “PubChem BioAssay data set” (2004)
Active and inactive are the calls of the source. Cut-off read from the data, not from the text of the source, for most assays here: actives have a measured IC50 and inactives only a lower limit.

Key:
[1] = molecular target: T1, Histone-lysine N-methyltransferase NSD2 (Homo sapiens, UniProt O96028); type: biochemical
T1 sequence (O96028 whole entry): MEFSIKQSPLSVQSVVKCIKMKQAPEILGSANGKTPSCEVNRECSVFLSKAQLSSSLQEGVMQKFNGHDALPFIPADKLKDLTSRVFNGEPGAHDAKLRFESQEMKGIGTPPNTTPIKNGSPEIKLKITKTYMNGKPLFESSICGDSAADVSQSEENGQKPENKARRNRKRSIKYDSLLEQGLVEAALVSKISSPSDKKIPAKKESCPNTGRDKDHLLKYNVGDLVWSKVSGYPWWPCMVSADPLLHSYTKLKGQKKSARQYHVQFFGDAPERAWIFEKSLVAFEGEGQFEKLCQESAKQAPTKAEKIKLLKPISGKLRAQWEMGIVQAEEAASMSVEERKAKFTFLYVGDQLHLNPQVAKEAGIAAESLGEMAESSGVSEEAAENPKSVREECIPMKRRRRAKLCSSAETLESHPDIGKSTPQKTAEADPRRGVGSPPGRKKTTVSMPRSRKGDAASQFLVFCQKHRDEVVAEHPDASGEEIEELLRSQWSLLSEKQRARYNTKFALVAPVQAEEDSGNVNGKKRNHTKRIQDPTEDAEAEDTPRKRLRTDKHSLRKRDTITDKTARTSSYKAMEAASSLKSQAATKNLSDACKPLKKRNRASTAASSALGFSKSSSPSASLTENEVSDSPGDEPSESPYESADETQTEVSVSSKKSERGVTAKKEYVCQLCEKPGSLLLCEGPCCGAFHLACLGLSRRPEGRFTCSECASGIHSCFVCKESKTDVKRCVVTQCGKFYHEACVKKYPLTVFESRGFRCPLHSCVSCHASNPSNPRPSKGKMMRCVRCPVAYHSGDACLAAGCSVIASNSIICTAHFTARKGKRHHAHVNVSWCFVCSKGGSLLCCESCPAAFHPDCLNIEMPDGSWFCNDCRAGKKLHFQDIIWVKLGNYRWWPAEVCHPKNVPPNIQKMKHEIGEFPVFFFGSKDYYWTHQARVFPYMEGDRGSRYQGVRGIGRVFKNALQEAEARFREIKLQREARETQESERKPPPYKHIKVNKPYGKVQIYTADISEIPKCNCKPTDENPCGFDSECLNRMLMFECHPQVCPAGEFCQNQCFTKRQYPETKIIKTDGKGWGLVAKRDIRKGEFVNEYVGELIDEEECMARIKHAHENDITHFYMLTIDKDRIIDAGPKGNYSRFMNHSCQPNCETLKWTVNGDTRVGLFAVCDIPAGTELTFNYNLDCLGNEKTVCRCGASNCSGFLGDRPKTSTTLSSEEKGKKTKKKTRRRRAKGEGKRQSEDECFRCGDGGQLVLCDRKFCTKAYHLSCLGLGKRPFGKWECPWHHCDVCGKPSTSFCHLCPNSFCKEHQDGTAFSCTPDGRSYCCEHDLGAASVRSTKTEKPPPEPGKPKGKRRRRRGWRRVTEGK

[2] = molecular target: T2, Apoptotic protease-activating factor 1 (Homo sapiens, UniProt O14727); type: functional
T2 sequence (O14727 whole entry): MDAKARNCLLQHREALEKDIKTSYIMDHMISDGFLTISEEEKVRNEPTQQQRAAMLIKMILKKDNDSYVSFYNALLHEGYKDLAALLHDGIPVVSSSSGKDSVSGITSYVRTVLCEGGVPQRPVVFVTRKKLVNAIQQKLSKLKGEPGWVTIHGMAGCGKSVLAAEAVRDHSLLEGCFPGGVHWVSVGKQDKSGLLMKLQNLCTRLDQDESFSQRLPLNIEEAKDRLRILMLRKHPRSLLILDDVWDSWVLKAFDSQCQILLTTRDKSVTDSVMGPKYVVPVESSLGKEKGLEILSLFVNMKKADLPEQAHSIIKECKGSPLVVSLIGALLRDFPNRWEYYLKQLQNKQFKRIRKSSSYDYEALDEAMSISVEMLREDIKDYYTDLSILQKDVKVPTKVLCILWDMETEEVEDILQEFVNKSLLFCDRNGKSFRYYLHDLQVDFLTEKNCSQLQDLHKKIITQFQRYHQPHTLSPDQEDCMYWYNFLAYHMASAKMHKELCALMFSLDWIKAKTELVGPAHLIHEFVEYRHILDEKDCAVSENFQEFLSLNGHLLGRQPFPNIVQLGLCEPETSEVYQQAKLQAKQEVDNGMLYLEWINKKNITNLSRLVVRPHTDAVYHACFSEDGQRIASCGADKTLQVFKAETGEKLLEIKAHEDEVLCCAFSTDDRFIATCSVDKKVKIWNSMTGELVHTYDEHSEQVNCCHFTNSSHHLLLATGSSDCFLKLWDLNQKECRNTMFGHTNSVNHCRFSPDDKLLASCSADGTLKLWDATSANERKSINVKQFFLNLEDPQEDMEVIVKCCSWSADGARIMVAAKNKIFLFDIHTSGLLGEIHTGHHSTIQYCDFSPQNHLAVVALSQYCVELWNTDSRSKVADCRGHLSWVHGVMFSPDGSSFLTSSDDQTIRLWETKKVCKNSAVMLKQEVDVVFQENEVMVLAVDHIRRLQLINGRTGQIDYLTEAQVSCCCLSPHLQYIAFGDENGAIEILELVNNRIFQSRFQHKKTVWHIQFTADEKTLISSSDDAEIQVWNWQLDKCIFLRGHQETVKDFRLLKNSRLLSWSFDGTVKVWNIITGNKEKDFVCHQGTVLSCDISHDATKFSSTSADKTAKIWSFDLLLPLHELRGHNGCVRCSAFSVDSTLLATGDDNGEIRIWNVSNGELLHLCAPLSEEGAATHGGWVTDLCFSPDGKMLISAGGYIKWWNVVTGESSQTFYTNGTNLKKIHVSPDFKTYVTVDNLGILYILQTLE

[3] = molecular target: T3, Ubiquitin-conjugating enzyme E2 N (Homo sapiens, UniProt P61088); type: functional;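 note: Dose-response confirmation in a TR-FRET assay detecting UBC13-driven polyubiquitin chain formation, inhibition measured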
T3 sequence (P61088 whole entry): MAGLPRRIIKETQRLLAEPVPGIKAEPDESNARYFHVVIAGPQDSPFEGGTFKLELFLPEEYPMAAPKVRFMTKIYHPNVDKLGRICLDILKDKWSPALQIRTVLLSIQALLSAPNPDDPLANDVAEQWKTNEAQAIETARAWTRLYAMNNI

Row | Compound | AC50 [1] | IC50 [2] | IC50 [3]
1 | CC(C)[n+]1ccn(C2=C([N-]S(=O)(=O)c3ccccc3)C(=O)c3ccccc3C2=O)c1 | 5.79 µM (active) | 7.16 µM (active) | 
2 | CCCCCCCCCCOC(=O)Cn1c(COc2ccccc2)[n+](C)c2ccccc21 |  | 12.6 µM (active) | > 20 µM (inactive)
3 | COc1cc(-c2nnc(SCc3cc(=O)oc4cc(O)c(O)cc34)o2)cc(OC)c1OC | 0.665 µM (active) |  | 
4 | CCOC(=O)c1c(-c2ccc(-c3ccccc3)cc2)csc1NC(=O)CNCCN(C)C |  | 32.5 µM (active) | 11.4 µM (active)
5 | N#Cc1c(NC(=O)c2ccc(Br)o2)n(-c2ccccc2)c2nc3ccccc3nc12 | 11.6 µM (active) | 7.22 µM (active) | 
